Experimental data taken from PubChem BioAssay (NCI).
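Following 48 hours of exposure in 96-well plates, responses at five concentrations were used to interpolate endpoints linearly. TGI: total growth inhibition.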 Residues, ends and D or L forms follow the SMILES beside them. *: point of attachment. Boc = CC(C)(C)OC(=O)*; OBn = c1ccc(CO*)cc1

What was measured:
Assay in all cases: NCI-60 cell line screen, 48 h
[1] = system: 786-0 renal
[2] = system: A498 renal
[3] = system: A549 NSCLC
[4] = system: ACHN renal
[5] = system: BT-549 breast
[6] = system: CAKI-1 renal
[7] = system: CCRF-CEM leukemia
[8] = system: COLO 205 colon
[9] = system: DU-145 prostate
[10] = system: EKVX NSCLC
[11] = system: HCC-2998 colon
[12] = system: HCT-116 colon
[13] = system: HCT-15 colon
[14] = system: HL-60(TB) leukemia
[15] = system: HOP-62 NSCLC
[16] = system: HOP-92 NSCLC
[17] = system: HT29 colon
[18] = system: IGROV1 ovarian
[19] = system: KM12 colon
[20] = system: LOX IMVI melanoma
[21] = system: M14 melanoma
[22] = system: MALME-3M melanoma
[23] = system: MCF7 breast
[24] = system: MDA-MB-231 breast
[25] = system: MDA-MB-435
[26] = system: MDA-N
[27] = system: MOLT-4 leukemia
[28] = system: NCI-H226 lung
[29] = system: NCI-H23 lung
[30] = system: NCI-H460 lung
[31] = system: NCI/ADR-RES ovarian
[32] = system: OVCAR-3 ovarian
[33] = system: OVCAR-5 ovarian
[34] = system: OVCAR-8 ovarian
[35] = system: PC-3 prostate
[36] = system: RPMI-8226 leukemia
[37] = system: SF-268 CNS
[38] = system: SF-295 CNS
[39] = system: SF-539 CNS
[40] = system: SK-MEL-28 melanoma
[41] = system: SK-MEL-5 melanoma
[42] = system: SK-OV-3 ovarian
[43] = system: SN12C renal
[44] = system: SNB-19 CNS
[45] = system: SR leukemia
[46] = system: SW-620 colon
[47] = system: T-47D breast
[48] = system: TK-10 renal
[49] = system: U251 CNS
[50] = system: UACC-257 melanoma
[51] = system: UO-31 renal
[52] = system: K-562 leukemia
[53] = system: NCI-H522 lung
[54] = system: OVCAR-4 ovarian
[55] = system: RXF 393 renal
[56] = system: SK-MEL-2 melanoma
[57] = system: SNB-75 CNS
[58] = system: UACC-62 melanoma

Compound: CC(/C=C/c1ccccc1)=N\NC(N)=S
- TGI [1]: > 100 µM
- TGI [2]: 44.5 µM
- TGI [3]: > 100 µM
- TGI [4]: > 100 µM
- TGI [5]: > 100 µM
- TGI [6]: > 100 µM
- TGI [7]: > 100 µM
- TGI [8]: 44.2 µM
- TGI [9]: > 100 µM
- TGI [10]: > 100 µM
- TGI [11]: 79.1 µM
- TGI [12]: > 100 µM
- TGI [13]: > 100 µM
- TGI [14]: 41.7 µM
- TGI [15]: > 100 µM
- TGI [16]: > 100 µM
- TGI [17]: > 100 µM
- TGI [18]: > 100 µM
- TGI [19]: > 100 µM
- TGI [20]: > 100 µM
- TGI [21]: 88.4 µM
- TGI [22]: > 100 µM
- TGI [23]: > 100 µM
- TGI [24]: > 100 µM
- TGI [25]: 84.4 µM
- TGI [26]: > 100 µM
- TGI [27]: > 100 µM
- TGI [28]: > 100 µM
- TGI [29]: > 100 µM
- TGI [30]: > 100 µM
- TGI [31]: 84 µM
- TGI [32]: 66.8 µM
- TGI [33]: > 100 µM
- TGI [34]: > 100 µM
- TGI [35]: > 100 µM
- TGI [36]: 93.5 µM
- TGI [37]: > 100 µM
- TGI [38]: 61.2 µM
- TGI [39]: 94.5 µM
- TGI [40]: > 100 µM
- TGI [41]: > 100 µM
- TGI [42]: > 100 µM
- TGI [43]: > 100 µM
- TGI [44]: 79.2 µM
- TGI [45]: 65.3 µM
- TGI [46]: > 100 µM
- TGI [47]: 49.1 µM
- TGI [48]: > 100 µM
- TGI [49]: > 100 µM
- TGI [50]: > 100 µM
- TGI [51]: > 100 µM

Compound: CC(C)CC(NC(=O)OC(C)(C)C)C(=O)N1CCCC1C(=O)OCc1ccccc1 (stereo not drawn) (Boc-Leu-Pro-OBn; configuration not given here)
- TGI [1]: > 100 µM
- TGI [2]: > 100 µM
- TGI [3]: > 100 µM
- TGI [4]: > 100 µM
- TGI [5]: > 100 µM
- TGI [6]: > 100 µM
- TGI [8]: > 100 µM
- TGI [9]: > 100 µM
- TGI [10]: > 100 µM
- TGI [12]: > 100 µM
- TGI [13]: > 100 µM
- TGI [16]: > 100 µM
- TGI [17]: > 100 µM
- TGI [18]: > 100 µM
- TGI [52]: > 100 µM
- TGI [19]: > 100 µM
- TGI [20]: > 100 µM
- TGI [21]: > 100 µM
- TGI [22]: > 100 µM
- TGI [23]: > 100 µM
- TGI [24]: > 100 µM
- TGI [25]: > 100 µM
- TGI [26]: > 100 µM
- TGI [28]: > 100 µM
- TGI [29]: > 100 µM
- TGI [53]: > 100 µM
- TGI [31]: > 100 µM
- TGI [32]: > 100 µM
- TGI [54]: > 100 µM
- TGI [33]: > 100 µM
- TGI [34]: > 100 µM
- TGI [35]: > 100 µM
- TGI [55]: > 100 µM
- TGI [37]: > 100 µM
- TGI [38]: > 100 µM
- TGI [39]: > 100 µM
- TGI [56]: > 100 µM
- TGI [40]: > 100 µM
- TGI [41]: > 100 µM
- TGI [42]: > 100 µM
- TGI [43]: > 100 µM
- TGI [44]: > 100 µM
- TGI [57]: > 100 µM
- TGI [45]: > 100 µM
- TGI [46]: > 100 µM
- TGI [47]: > 100 µM
- TGI [48]: > 100 µM
- TGI [49]: > 100 µM
- TGI [50]: > 100 µM
- TGI [58]: > 100 µM
- TGI [51]: > 100 µM

Compound: NC(=O)C(=O)C(c1ccccc1)S(=O)(=O)Cc1ccccc1 (configuration not stated)
- TGI [1]: > 100 µM
- TGI [3]: > 100 µM
- TGI [4]: > 100 µM
- TGI [5]: > 100 µM
- TGI [6]: > 100 µM
- TGI [7]: > 100 µM
- TGI [8]: > 100 µM
- TGI [9]: > 100 µM
- TGI [10]: > 100 µM
- TGI [11]: > 100 µM
- TGI [12]: > 100 µM
- TGI [13]: > 100 µM
- TGI [15]: > 100 µM
- TGI [16]: > 100 µM
- TGI [17]: > 100 µM
- TGI [18]: > 100 µM
- TGI [52]: > 100 µM
- TGI [19]: > 100 µM
- TGI [20]: > 100 µM
- TGI [21]: > 100 µM
- TGI [23]: > 100 µM
- TGI [24]: > 100 µM
- TGI [25]: > 100 µM
- TGI [26]: > 100 µM
- TGI [27]: > 100 µM
- TGI [28]: > 100 µM
- TGI [29]: > 100 µM
- TGI [30]: > 100 µM
- TGI [53]: > 100 µM
- TGI [31]: > 100 µM
- TGI [32]: > 100 µM
- TGI [54]: > 100 µM
- TGI [33]: > 100 µM
- TGI [34]: > 100 µM
- TGI [35]: > 100 µM
- TGI [36]: > 100 µM
- TGI [55]: > 100 µM
- TGI [37]: > 100 µM
- TGI [38]: > 100 µM
- TGI [39]: > 100 µM
- TGI [56]: > 100 µM
- TGI [40]: > 100 µM
- TGI [41]: > 100 µM
- TGI [42]: > 100 µM
- TGI [43]: > 100 µM
- TGI [44]: > 100 µM
- TGI [57]: > 100 µM
- TGI [45]: > 100 µM
- TGI [46]: > 100 µM
- TGI [47]: > 100 µM
- TGI [48]: > 100 µM
- TGI [49]: > 100 µM
- TGI [50]: > 100 µM
- TGI [58]: > 100 µM
- TGI [51]: > 100 µM
